{
  "source": "patent US20100204151A1",
  "about": "“USE OF A PEPTIDE AS A THERAPEUTIC AGENT” (priority 2007, published 2010)",
  "system": "drug-resistant Mycobacterium tuberculosis",
  "conditions": "peptide 10 micrograms per ml, seven days",
  "data": [
    {"substance": "Ac-HWAVGHL-NH2 [Acetyl-GRP (20-26), Ac-His-Trp-Ala-Val-Gly-His-Leu-NH2]", "values": [
      {"measurement": "% inhibition", "value": 0.0, "unit": "%"}
    ]}
  ]
}
